What follows are molecules tested against SARS2 protease (Severe acute respiratory syndrome coronavirus 2, UniProt P0DTD1) (assay: SARS-CoV-2 protease inhibition assay (SARS2 FRET protease assay)). Conditions: SARS-CoV-2 protease 25 nM, FRET, peptide substrate 1.3 μM, 30 minutes at 30° C., compounds 20 μM to 1.0 nM; read-out: IC50.
Type: biochemical

Point of comparison: O=C(N[C@@H](CC1CCCCC1)C(=O)N[C@@H](C[C@@H]1CCNC1=O)C(=O)C(=O)NC1CC1)OC(Cc1cccc(Cl)c1)c1ccccc1 (stereo partly shown) [Compound C158], IC50 2610 nM. Against it:
- CC(C)C[C@H](NC(=O)OC(Cc1ccccc1)c1ccccc1)C(=O)N[C@@H](C[C@@H]1CCNC1=O)C(=O)C(N)=O (stereo partly drawn) [Compound C100, 1,2-Diphenylethyl ((S)-1-(((S)-4-amino-3,4-dioxo-1-((S)-2-oxopyrrolidin-3-yl)butan-2-yl)amino)-4-methyl-1-oxopentan-2-yl)carbamate] — 2.6-fold lower, 1000 nM
- CC(C)C[C@H](NC(=O)OC(c1ccccc1)C1(c2cccc(Cl)c2)CCC1)C(=O)N[C@H](C=O)C[C@@H]1CCNC1=O (stereo partly shown) [Compound C277] — 3.7-fold lower, 710 nM
- CCN1CCN(C(=O)C(=O)[C@H](C[C@@H]2CCNC2=O)NC(=O)[C@H](CC(C)C)NC(=O)OC(c2ccccc2)C(C)(C)c2cccc(Cl)c2)CC1 (stereo partly shown) [Compound C287] — higher, > 20000 nM
- COc1cccc2[nH]c(C(=O)N[C@@H](CC(C)C)C(=O)NC(CC3CC4(CCCCC4)NC3=O)C(=O)C(=O)NC3CC3)cc12 (stereo partly drawn) [Compound C234, N-((2S)-1-((4-(cyclopropylamino)-3,4-dioxo-1-(2-oxo-1-azaspiro[4.5]decan-3-yl)butan-2-yl)amino)-4-methyl-1-oxopentan-2-yl)-4-methoxy-1H-indole-2-carboxamide] — 3300-fold lower, 0.8 nM
- CCOP(=O)(OCC)C(O)[C@H](CCC(=O)N1CCN(C(=O)OC(C)(C)C)C(c2ccccc2)C1)NC(=O)[C@H](CC1CCCCC1)NC(=O)OCc1cccc(Cl)c1 (stereo partly drawn) [Compound C1, tert-butyl 4-((4S)-4-((S)-2-((((3-chlorobenzyl)oxy)carbonyl)amino)-3-cyclohexylpropanamido)-5-(diethoxyphosphoryl)-5-hydroxypentanoyl)-2-phenylpiperazine-1-carboxylate] — higher, > 200000 nM
- CCOP(=O)(OCC)C(O)C(CC1CC(Cc2ccccc2)NC1=O)NC(=O)[C@H](CC1CCCCC1)NC(=O)OCc1cccc(Cl)c1 (stereo partly drawn) [Compound C41, 3-Chlorobenzyl ((2S)-1-((3-(5-benzyl-2-oxopyrrolidin-3-yl)-1-(diethoxyphosphoryl)-1-hydroxypropan-2-yl)amino)-3-cyclohexyl-1-oxopropan-2-yl)carbamate] — 8.5-fold lower, 308 nM
- NC(=O)C(=O)[C@H](C[C@@H]1CCNC1=O)NC(=O)[C@H](CC1CCCCC1)NC(=O)OC(Cc1cccc(Cl)c1)c1ccccc1 (stereo partly drawn) [Compound C116, 2-(3-Chlorophenyl)-1-phenylethyl ((S)-1-(((S)-4-amino-3,4-dioxo-1-((S)-2-oxopyrrolidin-3-yl)butan-2-yl)amino)-3-cyclohexyl-1-oxopropan-2-yl)carbamate] — 1.9-fold higher, 4840 nM
- O=C(N[C@@H](CC1CCCCC1)C(=O)N[C@@H](C[C@@H]1CCNC1=O)C(=O)C(=O)NC1CC1)OC(Cc1cccc(Cl)c1)c1cccc(Cl)c1 (stereo partly drawn) [Compound C241, 1,2-Bis(3-chlorophenyl)ethyl ((S)-3-cyclohexyl-1-(((S)-4-(cyclopropylamino)-3,4-dioxo-1-((S)-2-oxopyrrolidin-3-yl)butan-2-yl)amino)-1-oxopropan-2-yl)carbamate] — within 1.5-fold, 2350 nM
- O=C(N[C@@H](CC1CCCCC1)C(=O)N[C@@H](C[C@H]1CC2(CCCCC2)NC1=O)C(=O)C(=O)NC1CC1)OCc1cccc(Cl)c1 [Compound C149, 3-Chlorobenzyl ((S)-3-cyclohexyl-1-(((S)-4-(cyclopropylamino)-3,4-dioxo-1-((S)-2-oxo-1-azaspiro[4.5]decan-3-yl)butan-2-yl)amino)-1-oxopropan-2-yl)carbamate] — 1.5-fold higher, 3970 nM
- CC(C)(C)C(=O)N1CCC2(CC1)CC(CC(C=O)NC(=O)[C@H](CC1CCCCC1)NC(=O)OCc1cccc(Cl)c1)C(=O)N2 (stereo partly drawn) [Compound C212, 3-Chlorobenzyl ((2S)-3-cyclohexyl-1-oxo-1-((1-oxo-3-(2-oxo-8-pivaloyl-1,8-diazaspiro[4.5]decan-3-yl)propan-2-yl)amino)propan-2-yl)carbamate] — 13-fold lower, 194 nM
- CC(=O)N1CCC2(CC1)CC(CC(C=O)NC(=O)[C@H](CC(C)C)NC(=O)c1cc3ccccc3[nH]1)C(=O)N2 (stereo partly drawn) [Compound C74, N-((2S)-1-((1-(8-acetyl-2-oxo-1,8-diazaspiro[4.5]decan-3-yl)-3-oxopropan-2-yl)amino)-4-methyl-1-oxopentan-2-yl)-1H-indole-2-carboxamide] — 19-fold lower, 140 nM
- CC(C)C[C@H](NC(=O)OC(c1ccc(Cl)cc1)C(C)(C)c1cccc(Cl)c1)C(=O)N[C@@H](C[C@@H]1CCNC1=O)C(=O)C(=O)NC1CC1 (stereo partly drawn) [Compound C226, 2-(3-chlorophenyl)-1-(4-chlorophenyl)-2-methylpropyl ((S)-1-(((S)-4-(cyclopropylamino)-3,4-dioxo-1-((S)-2-oxopyrrolidin-3-yl)butan-2-yl)amino)-4-methyl-1-oxopentan-2-yl)carbamate] — 46-fold lower, 57 nM

From patent US20230159453A1 (COCRYSTAL PHARMA, INC., priority 2020, published 2023)
